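These data come from cells grown in 96-well plates and exposed to compound for 48 hours at five concentrations. TGI: concentration producing complete growth inhibition.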
Columns and labels:
Assay in all cases: NCI anticancer screen, dose series, 48 h
SNB-19 CNS = system: SNB-19 CNS
UACC-62 melanoma = system: UACC-62 melanoma
COLO 205 colon = system: COLO 205 colon
MDA-MB-435 = system: MDA-MB-435
SK-OV-3 ovarian = system: SK-OV-3 ovarian
OVCAR-8 ovarian = system: OVCAR-8 ovarian
NCI-H460 lung = system: NCI-H460 lung
SR leukemia = system: SR leukemia
OVCAR-4 ovarian = system: OVCAR-4 ovarian
MOLT-4 leukemia = system: MOLT-4 leukemia

Structure (SMILES) | TGI (SNB-19 CNS) [µM] | TGI (UACC-62 melanoma) [µM] | TGI (COLO 205 colon) [µM] | TGI (MDA-MB-435) [µM] | TGI (SK-OV-3 ovarian) [µM] | TGI (OVCAR-8 ovarian) [µM] | TGI (NCI-H460 lung) [µM] | TGI (SR leukemia) [µM] | TGI (OVCAR-4 ovarian) [µM] | TGI (MOLT-4 leukemia) [µM]
COC1(CC[C@H](C)COC2OC(CO)C(O)C(O)C2O)O[C@H]2C[C@H]3[C@@H]4CC=C5C[C@@H](OC6OC(CO)C(O)C(OC7OC(CO)C(O)C(O)C7O)C6OC6OC(C)C(O)C(O)C6O)CC[C@]5(C)[C@H]4CC[C@]3(C)[C@H]2[C@@H]1C (stereo not given in full) | 18.4 | > 39.2 | 16.2 | 4.24 | 24.5 | 9.47 | 11.6 | > 100 | 14.9 | > 27.3
CC(=O)Oc1c(C)c2c(c3ccccc13)OC(C)(C)C2 | 69.7 | 30.3 | 38.5 | 33.2 | 66.3 | 32.5 | 34.2 | 52.8 | 30 | 37.1
O=C1NC(S(=O)(=O)O)=NNC12c1ccccc1-c1ccccc12 | > 10 | > 10 | > 10 | > 10 | > 10 | > 10 | > 10 | > 10 | > 10 | > 10
Cc1cc(C)n(C(=O)CSc2nnc(SCC(=O)n3nc(C)cc3C)s2)n1 | > 100 | > 100 | > 100 | > 100 | > 100 | > 100 | > 100 | > 100 | > 100 | > 100
COc1ccc(-c2nc(-c3cnccn3)n(COCCO)n2)cc1 | > 100 | > 100 | > 100 | > 100 | > 100 | > 100 | > 100 | > 100 | > 100 | > 100
Cc1cc2c(cc1C)C(=O)/C(=N/Nc1ccc(F)cc1)CCO2 | > 100 | > 100 | > 100 | > 100 | > 100 | > 100 | > 100 | > 100 | > 100 | > 100
NC(N)=NS(=O)(=O)c1ccc(NC(=O)c2ccc3[nH]c4ccccc4c(=O)c3c2)cc1 | > 100 | > 100 | > 100 | > 100 | > 100 | > 100 | > 100 | > 100 | > 100 | > 100
COc1ccc2c(CCNS(=O)(=O)c3ccccc3)c(C(C)=O)[nH]c2c1 | > 100 | > 100 | > 100 | > 75.6 | > 100 | > 100 | > 100 | > 100 | > 100 | > 100
c1ccc(C2=Nc3cccc4cccc(c34)N2)cc1 | > 100 | > 100 | 40.9 | > 85.8 | > 100 | > 87 | > 100 | 52.9 | 42.6 | > 54.8
C=CCn1cnc2c(=O)[nH]c(Nc3ccccc3)nc21 | > 100 | > 100 | > 100 | > 100 | > 100 | > 100 | > 100 | > 100 | > 100 | > 100
O=C(CCOS(=O)(=O)CF)N1CCN(C(=O)CCOS(=O)(=O)CF)CC1 | > 100 | > 100 | > 100 | > 100 | > 82.5 | > 100 | > 100 | > 100 | > 100 | 36.3
Cn1c2c3c(F)c(F)ccc3nc-2cc2ccccc21 | 18.2 | 15.8 | 10.7 | 15.7 | 21.1 | 16.3 | 12.6 | > 100 | 22.9 | > 100
CC(=O)N=C1N(/C=C2\C(=O)Oc3ccccc3C2=O)C(=O)/C(=C/c2ccccc2Cl)N1C | > 100 | > 100 | > 100 | > 100 | > 100 | > 100 | > 100 | > 100 | > 100 | > 100
COc1cccc2cc(C(=O)Nc3ccccn3)c(=N)oc12 | > 100 | > 100 | > 100 | > 100 | > 100 | > 100 | > 100 | 16.5 | > 100 | 10.6
